Assay results reported in US20250092360A1, “METHODS AND COMPOSITIONS FOR GENERATING SOMATOSTATIN+ INTERNEURONS FROM HUMAN FOREBRAIN NEURAL PROGENITOR CELLS” (Trailhead Biosystems Inc., priority 2023, published 2025).
“And” between values parts separate entries of the source, which are not always exact repeats. Equal entries are not always repeated. “Also recorded” adds a separate entry of the source.

B1: NT-3: effector tested in the stage 5 HD-DoE experiment (protein, UniProt P20783 139-257, looked up)
Neurotrophin-3: YAEHKSHRGEYSVCDSESLWVTDKSSAIDIRGHQVTVLGEIKTGNSPVKQYFYETRCKEARPVKNGCRGIDDKHWNSQCKTSQTYVRALTSENNKLVGWRWIRIDTSCVCALSRKIGRT
B2: TGF-β3: effector tested in the stage 5 HD-DoE experiment (protein, UniProt P10600 301-412, looked up)
Transforming growth factor …: ALDTNYCFRNLEENCCVRPLYIDFRQDLGWKWVHEPKGYYANFCSGPCPYLRSADTTHSTVLGLYNTLNPEASASPCCVPQDLEPLTILYYVGRTPKVEQLSNMVVKSCKCS
modifications: Transforming growth factor beta-3

Legend:
Format in all cases: cell-based, human
[1] = tested on: forebrain-committed neural progenitor cells; test: HD-DoE stage 5, 8-factor experiment (GDNF, BDNF, NT-3 ...): Somatostatin expression; conditions: for impact on expression of Somatostatin: FIG. 24 dynamic profile, in words; for factor contribution, expression of Somatostatin: positive, 8-factor experiment of FIG. 23
Protocol: To investigate the effects of other factors on differentiation of forebrain-committed neural progenitor cells to Somatostatin interneuron cells, an additional HD-DoE experiment was performed for 3 days on cells that were treated with stage 1 to stage 4 medium for a total of 12 days prior to the new experiment. This experiment, the results of which are shown in FIG. 23, included eight effectors, GDNF, BDNF, NT-3, ß-NGF, Linoleic acid, 5-Cholesten-3β, LIF and TGF-β3. In this model, we focused on maximum expression of Somatostatin gene expressed in Somatostatin (+) interneurons (Urban-Ciecko and Barth (2016) Nature Reviews Neurosci. 17:401-409). When the model was optimized for maximum expression of Somatostatin, BDNF, NT-3, beta-NGF and Linoleic acid had the highest factor contributions, 25.7, 2, 19.9, 23.5, respectively.
Therefore, the latter were excluded in the recipe.

[2] = tested on: stage 2 neural stem cells; test: HD-DoE stage 3 experiment: ASCL1, LHX6, DLX1 expression; conditions: for factor contribution, expression of ASCL1: positive, model optimized for maximum ASCL1 at 1700
Protocol: To further guide the cells to medial ganglionic eminence progenitor fate, an additional HD-DoE experiment was performed for 3 days on cells that were treated with stage 1 and stage 2 media for total of 6 days prior to start of the experiment. This experiment included 13 effectors, LDN193189, A8301, GNF5837, AZD3147, GSI-XX, Takinib, PD0325901, PD173074, BLU9931, IGF-1, MHY1485, Purmorphamine and Prostratin. In this model, we focused on maximum expression of genes expressed in neuronal progenitor cells in medial ganglionic eminence (MGE) region including ASCL1, LHX6 and DLX1 (Silberberg et al. (2016) Neuron 92:59-74). When the model was optimized for maximum expression of ASCL1 at 1700, A8301, GSI-XX, Purmorphamine and Takinib, which is an inhibitor of TAK1 pathway, had the highest factor contributions, 18.1, 14.1, 12.7 and 10.1 respectively. […] MHY 1485 also had positive contribution however the factor was below 2 (FIG. 9).
Therefore, six effectors including A8301, GSI-XX, Takinib, GNF5837, IGF-1 and Purmorphamine were finalized as ingredients of stage 3 differentiation media. A representative recipe for Stage 3 differentiation is summarized below in Table 3.

[3] = tested on: stage 2 neural stem cells; test: Factor criticality analysis, stage 3 recipe; conditions: other five stage 3 factors present; for expression level of DLX1 when the factor is removed: 220 with all six factors; for expression level of LHX6 when the factor is removed: 240 with all six factors; for expression level of ASCL1 when the factor is removed: 1650 with all six factors
Protocol: To assess the impact of the elimination of each validated factor, dynamic profile analysis was used and compared the expression level of genes of interest in absence of each finalized factor while others are present.
In the stage 3 recipe, each of the six finalized factors were removed while the other five factors remained present and the expression levels of ASCL1, DLX1 and LHX6 were assessed compared to the presence of all six factors. […] As expected, in the absence of IGF-1, the value of DLX1 increases to 410, however, ASCL1 and LHX6 decreased to 1390 and 220, respectively.

[4] = tested on: medial ganglionic eminence (MGE)-derived neural progenitors; test: HD-DoE stage 4, 12-factor experiment: SOX6 expression; conditions: for impact on expression of SOX6: dynamic profile, in words; for factor contribution, expression of SOX6: significant negative effect, model optimized for maximal SOX6
Text: These effectors are small chemical compounds or proteins. They are commonly used during the differentiation of stem cells to specific cell linage. The choice of the effectors was based on the current literature on forebrain neural induction and differentiation of neural progenitor cells to mature neurons.
To evaluate the effectors on SST differentiation, experiments with 8 or 12 factors were designed to assess the responses of cells to 48 or more combinations of effectors in a range of concentrations. To analyze the models, we focused on expression of genes involved in development and patterning of the forebrain interneurons maturation including LHX6 (Liodis et al. (2007) J. Neurosci. 27:3078-3089; Yuan et al. (2018) Elife 7: e37382), SOX6 (Azim et al. (2009) Nature Neurosci. 12:1238-1247; Batista-Brito et al. (2009) Neuron 63:466-481), DLX5 (de Lombares et al. (2019) Aging (Albany NY) 11:6638; Wang et al. (2010) J. Neurosci. 30:5334-5345) and ASCL1 (Barretto et al. (2020) J. Neurosci. Meth. 334:108548; Shi et al. (2016) J. Biol. Chem. 291:13560-13570). At later stages we focused on interneuron maturation genes including somatostatin and absence of Parvalbumin (Horn and Nicoll (2018) Proc. Natl. Acad. Sci. 115:589-594). The impacts of each effector on gene expression level are defined by a parameter called factor contribution that is calculated for each effector during the modeling.
To identify the recipe for differentiation at stage 4, at least 48 different combinations of effectors were robotically prepared by the Design-of-Experiments compression through D-optimality. The effector combinations were prepared in a basal media and were subsequently added to the cells, which were then allowed to differentiate. Three days later, RNA extraction was performed, and gene expression levels were examined using quantitative PCR analysis. The data was normalized and modeled using partial least squares regression analysis to the effector design, resulting in the generation of gene-specific models, which after model tuning for maximal predictive power, provided explanation of the effectors ability to control the expression of individual genes, combinatorically, and individually. Solutions within the tested space could then be explored to address desirability.
IGF-1 activates the IGF-1 pathway, promotes neuron axonal growth, and establishes the synapse of interneurons. GDNF is the […] and can activate the GDNF pathway. MK2206 is an AKT inhibitor and can inhibit cell proliferation and promote neuronal maturation. PD173074 and BLU-554 are FGFR inhibitors. The FGF pathway is required for the maintenance of neural progenitor cells. Inhibition of the FGFR pathway promotes neural maturation. GSI-XX is a notch pathway inhibitor. Notch pathway inhibits neural progenitor cell differentiation. Inhibition of the Notch pathway promotes neural differentiation.
To find the set of factors that have the potential to optimize SOX6 in this experiment, a new assessment was done through dynamic profile analysis with focus on maximal expression of SOX6.

Molecule	impact on expression of Somatostatin [1]	factor contribution, expression of ASCL1 [2]	impact on expression of SOX6 [4]	factor contribution, expression of SOX6 [4]	further results
5-Cholesten-3β	negative impact				
Cc1cccc(-c2nn(C(=S)Nc3ccccc3)cc2-c2ccnc3ccccc23)n1 [A8301]		18.1 and 18			impact on expression of ASCL1 ([2]; dynamic profile, in words): positive trends; also recorded: Positive impact; impact on expression of DLX1 ([2]; dynamic profile, in words): did not have a significant negative impact; impact on expression of LHX6 ([2]; dynamic profile, in words): positive trends; also recorded: Positive impact; expression level of DLX1 when the factor is removed [3]: did not change significantly; expression level of LHX6 when the factor is removed [3]: did not change significantly; expression level of ASCL1 when the factor is removed [3]: 1000
Cc1ccc(NC(=O)Nc2cc(C(F)(F)F)ccc2F)cc1Nc1ccc2c(c1)NC(=O)/C2=C\c1ccc[nH]1 [GNF5837]		9.4			expression level of DLX1 when the factor is removed [3]: did not have a significant impact; expression level of LHX6 when the factor is removed [3]: 160; expression level of ASCL1 when the factor is removed [3]: 1300
CCCCC/C=C\C/C=C\CCCCCCCC(=O)O [Linoleic acid]	positive effect; also recorded: positive impact				factor contribution, expression of Somatostatin [1]: 23.5
O=[N+]([O-])c1ccc(Nc2nc(N3CCOCC3)nc(N3CCOCC3)n2)cc1 [MHY 1485]		below 2	negative effect	9.5	
NC(=O)c1ccc(-c2nc(-c3ccc4c(c3)OCO4)c(-c3ccccn3)[nH]2)cc1 [SB431542]			negative effect	6.2	
CCCn1/c(=N/C(=O)c2cccc(C(N)=O)c2)[nH]c2ccccc21 [Takinib]		10.1			expression level of DLX1 when the factor is removed [3]: 180; expression level of LHX6 when the factor is removed [3]: 170
CCCC(CCC)C(=O)O [Valproic acid]			negative effect	4.7	
LIF: effector tested in the stage 5 HD-DoE experiment	negative impact				
Substance P: member of the tachykinin neuropeptide family			negative effect	5.1	
beta-NGF: effector tested in the stage 5 HD-DoE experiment	positive impact				impact on expression of Somatostatin ([1]; listed as β-NGF): positive effect; factor contribution, expression of Somatostatin [1]: 19.9
B1	positive effect; also recorded: positive impact				factor contribution, expression of Somatostatin [1]: 2
B2	negative impact				
